In US20230364111A1 (priority 2020, published 2023):
Entries after “also recorded” stand apart in the source; their conditions may differ. Like-named read-outs stand apart in the source and are kept apart here.

How the values were obtained:
Calu-3 cells = conditions: at higher concentrations; automated microscopy
in vivo = conditions: balb/c, mouse, po, 200 mg/kg
[1] = tested on: SARS-CoV-2 (isolate USA WA1/2020); test: SARS-CoV-2 infection of Calu-3 cells (dsRNA+ cells, automated microscopy); assay type: cell-based; conditions: Severe acute respiratory syndrome coronavirus 2, SARS-CoV-2 USA WA1/2020, MOI=0.5, 48 h post-infection, Calu-3
Procedure: (§1) FIGS. 12A-12C depict dose-response curves for Oxy232. (FIG. 12A) Secreted viral RNA in the VeroE6 culture supernatant 24 h post-inoculation was quantified by real-time RT-PCR. Cell viability of Oxy232 treated cells evaluated with an MTT assay. (FIG. 12B) Secreted viral RNA of 3 SARS-CoV-2 strains in the VeroE6 culture supernatant 24 h post-inoculation was quantified by real-time RT-PCR. (FIG. 12C) Calu-3 (ATCC) cells were pretreated with Oxy232 for 2 hours prior to continuous infection with SARS-CoV-2 (isolate USA WA1/2020) at MOI=0.5. 48 h post-infection, cells were fixed, immune-strained, and imaged by automated microscopy for infection (dsRNA+ cells/total cell number) and cell number.
According to a previously published report (Ohashi et al., Identification of Anti-Severe Acute Respiratory Syndrome-Related Coronavirus 2 (SARS-CoV-2) Oxysterol Derivatives In Vitro. Int J Mol Sci. 2021; 22(6):3163. PMCID: PMC8003796) inventors have tested a collection of naturally occurring and semisynthetic oxysterol derivatives in a SARS-CoV-2 cell culture infection assay in VeroE6/TMPRSS2 cells. […] See, Ohashi et al., Int J Mol Sci. 2021; 22(6):3163 and Dittmar et al. Drug repurposing screens reveal cell-type-specific entry pathways and FDA-approved drugs active against SARS-Cov-2. Cell Rep. […] PMCID: PMC7985926. […] Without wishing to be bound by a theory, biological activities of oxysterols, including measures of cell viability, can heavily depend on in vitro assay conditions, such as the fetal bovine serum concentration or the duration of pretreatment with the compounds, among other factors, that may not translate to the in vivo safety of the compounds.

[2] = assay type: in vivo, mice; conditions: chow diet containing 4 mg Oxy210/g of food; 96 h
[3] = tested on: SARS-CoV-2 TY7-501 (Brazil strain); test: SARS-CoV-2 TY7-501 strain infection in VeroE6/TMPRSS2 cells; assay type: cell-based; conditions: viral RNA 24 h post-inoculation
Procedure: as §1
(§2) According to a previously published report (Ohashi et al., Identification of Anti-Severe Acute Respiratory Syndrome-Related Coronavirus 2 (SARS-CoV-2) Oxysterol Derivatives In Vitro. Int J Mol Sci. 2021; 22(6):3163. PMCID: PMC8003796) inventors have tested a collection of naturally occurring and semisynthetic oxysterol derivatives in a SARS-CoV-2 cell culture infection assay in VeroE6/TMPRSS2 cells. […] See, Ohashi et al., Int J Mol Sci. 2021; 22(6):3163 and Dittmar et al. Drug repurposing screens reveal cell-type-specific entry pathways and FDA-approved drugs active against SARS-Cov-2. Cell Rep. […] PMCID: PMC7985926. […]

SARS-CoV-2 [4] = test: SARS-CoV-2-induced cytopathic effect (CPE) in VeroE6/TMPRSS2 cells; assay type: cell-based
Hedgehog (Hh) signaling = conditions: previously reported [16]; fibroblastic cells and tumor cells; cited from earlier work
TGFβ signaling = conditions: previously reported [16]; fibroblastic cells and tumor cells; cited from earlier work
[5] = tested on: SARS-CoV-2 TY8-612 (South Africa strain); test: SARS-CoV-2 TY8-612 strain infection in VeroE6/TMPRSS2 cells; assay type: cell-based; conditions: viral RNA 24 h post-inoculation
Procedure: as §1, §2

in vitro [6] = conditions: human
[7] = tested on: idiopathic pulmonary fibrosis (IPF); test: Mouse model of idiopathic pulmonary fibrosis (IPF); assay type: in vivo; conditions: Parhami et al., unpublished observations
[8] = In vivo safety and tolerability in mice; conditions: mouse
[9] = tested on: double-membrane vesicles (DMVs) in SARS-CoV-2-infected cells; test: Electron microscopy of double-membrane vesicle (DMV) formation; assay type: cell-based; conditions: 10 μM Oxy210, Oxy232 (10 μM)
[10] = single oral dose 200 mg/kg
in vitro [11] = conditions: African green monkey
HDV = assay type: cell-based, Hepatitis D virus (HDV); conditions: 10 μM Oxy210 for six days; 200 nM MyrB; HepG2-hNTCP-C4 cells
SARS-CoV-2 [12] = test: Time of addition assay, SARS-CoV-2 viral RNA; assay type: cell-based; conditions: 15 μM RDV, 15 μM CLQ, 10 μM Oxy210, 10 μM Oxy133
SARS-CoV-2 Wk-521 strain = test: SARS-CoV-2 infection assay, viral RNA in culture supernatant (VeroE6/TMPRSS2 cells); assay type: cell-based
[13] = tested on: HCV NN (genotype-1b) subgenomic replicon; assay type: cell-based, Hepatitis C virus (HCV); conditions: 10 μM Oxy210; 48 h; LucNeo #2 cells
VeroE6/TMPRSS2 cells = conditions: read-out: CC50 (VeroE6); VeroE6
SARS-CoV-2 [14] = assay type: cell-based

C[C@]12CC[C@H]3[C@@H](CC=C4C[C@@H](O)CC[C@@]43C)[C@@H]1CC[C@@H]2[C@](C)(O)CCc1cccnc1 [Oxy210, (3S,8S,9S,10R,13S,14S,17S)-17-((R)-2-hydroxy-4-(pyridin-3-yl)butan-2-yl)-10,13-dimethyl-2,3,4,7,8,9,10,11,12,13,14,15,16,17-tetradecahydro-1H-cyclopenta[a]phenanthren-3-ol]
cell viability in Calu-3 cells (Calu-3 cells): do affect cell viability | AUC (in vivo): 29.3 µg·h/mL | Cmax (in vivo): 19 µM | IC50 ([1]; read-out: IC50 (Calu-3)): 1.5 µM | IC90 ([1]; read-out: IC90 (Calu-3)): 4.24 µM | adverse effects / body weight [2]: No adverse effects or significant loss of body weight | activity against the TY7-501 strain [3]: undiminished activity | virus-induced CPE (SARS-CoV-2 [4]; 48 h post-inoculation, 10 μM RDV, 30 μM cholesterol, 30 μM 7-KC, 10 μM Oxy133, 10 μM Oxy210, MOI 0.001): alleviates the virus-induced CPE; also recorded: blocked | SARS-CoV-2-induced cytopathic effect (SARS-CoV-2 [4]; oxy8 7.5 uM, oxy16 20 uM, oxy186 20 uM, oxy210 10 uM, 48 h, VeroE6/TMPRSS2): protected cells from cytopathic effect | Hedgehog (Hh) signaling (Hedgehog (Hh) signaling): inhibited | TGFβ signaling (TGFβ signaling): inhibited | activity against the TY8-612 strain [5]: undiminished activity | CC50 (in vitro [6]): 8.3 µM | effects in a mouse model of idiopathic pulmonary fibrosis (IPF) [7]: protective effects | in vivo safety and tolerability in mice [8]: excellent in vivo safety and tolerability | DMV formation in SARS-CoV-2-infected cells [9]: disrupting the formation of double-membrane vesicles; also recorded: reduced viral replication and the formation of double-membrane vesicles; also recorded: remarkably reduced the DMV formation; also recorded: reduced the formation of DMVs; also recorded: substantially reduced; also recorded: inhibit DMV formation | Tmax ([10]; plasma): 1 h | Cmax ([10]; read-out: peak plasma concentration (Cmax), 200 mg/kg): 19.4 µM | peak plasma concentration (Cmax) [10]: 8,155 ng/mL | tolerability [10]: well tolerated | CC50 (in vitro [11]): > 15 µM | HDV replication / infection (HDV RNA, real-time RT-PCR) (HDV): antiviral activity was not observed in HDV infection | viral RNA, compound present during the whole life cycle (SARS-CoV-2 [12]; 24 h): clearly reduced viral RNA levels | viral RNA, compound present post-entry (SARS-CoV-2 [12]; added 2 h post-inoculation for 21 h): clearly reduced viral RNA levels; also recorded: predominantly inhibits the post-entry process | viral RNA in the culture supernatant (SARS-CoV-2 Wk-521 strain; 24 h post-inoculation, natural oxysterols up to 30 μM, semi-synthetic up to 15 μM): reduced viral RNA level in a dose-dependent manner | IC50 (SARS-CoV-2 Wk-521 strain; Severe acute respiratory syndrome coronavirus 2, Vero C1008, SARS-CoV-2, VeroE6, read-out: IC50 (VeroE6)): 5.5 µM | IC90 (SARS-CoV-2 Wk-521 strain; Severe acute respiratory syndrome coronavirus 2, Vero C1008, SARS-CoV-2, VeroE6, read-out: IC90 (VeroE6)): 8.6 µM | IC90 (SARS-CoV-2 Wk-521 strain; Severe acute respiratory syndrome coronavirus 2, VeroE6/TMPRSS2, 24 h, SARS-CoV-2 viral RNA in culture supernatant, 24 h post-inoculation, VeroE6/TMPRSS2 cells, read-out: IC90): 8.6 µM | IC50 (SARS-CoV-2 Wk-521 strain; Severe acute respiratory syndrome coronavirus 2, SARS-CoV-2 viral RNA in culture supernatant, 24 h post-inoculation, VeroE6/TMPRSS2 cells, read-out: IC50): 5.5 µM | reduction of viral RNA production at the maximum (SARS-CoV-2 Wk-521 strain; at 15 μM): 99.4% | anti-SARS-CoV-2 activity (SARS-CoV-2 Wk-521 strain; cell-based assay, VeroE6/TMPRSS2): superior anti-SARS-CoV-2 activity; also recorded: robust anti-SARS-CoV-2 activity | viral RNA levels in the culture supernatant (SARS-CoV-2 Wk-521 strain; oxysterol derivatives at 10 or 30 uM, 24 h post-inoculation, VeroE6/TMPRSS2): strongly reduced viral RNA levels | SARS-CoV-2 propagation in cultured cells (SARS-CoV-2 Wk-521 strain; statement in words): potently inhibits the SARS-CoV-2 propagation | SARS-CoV-2 replication (SARS-CoV-2 Wk-521 strain; statement in words): drastically reduced SARS-CoV-2 replication; also recorded: inhibits the SARS-CoV-2 genome replication; also recorded: potent replication inhibitor | antiviral effect against SARS-CoV-2 (dose response, viral RNA) (SARS-CoV-2 Wk-521 strain; various concentrations, VeroE6/TMPRSS2): highly potent antiviral effect | HCV replication (luciferase activity) [13]: reduced the DMV-dependent RNA replication of HCV; also recorded: Antiviral effects of Oxy210 were also observed during the replication of HCV | CC50 (VeroE6/TMPRSS2 cells): > 15 µM | SARS-CoV-2 propagation / spread of infection (viral N protein, immunofluorescence) (SARS-CoV-2 [14]): blocked
